pIC50: −log10 of the molar value.
Test system: Porcine Smooth Muscle Cell
Experiment: Effects of compounds on cell proliferation using 3H thymidine incorporation (porcine smooth muscle cell antiproliferation)
Type: cell-based
Details: Sus scrofa, serum/growth factor stimulated cells, 24-36 h incubation
Experimental: Effects of Compounds on Cell Proliferation Using ^3H Thymidine Incorporation
Human and porcine smooth muscle cells were tested in early passage (generally passage 3-7) at sub-confluent conditions. Cultures were grown in 16 mm (24 well) multi-well culture dishes in medium 199 supplemented with 10% fetal bovine serum and 2% antibiotic/antimycotic. At sub-confluence, the cells were placed in a defined serum free medium (AIM-V; Gibco) for 24-48 h prior to initiating the experimental protocol.
Compounds were added to each well at 50 fold dilution (20 μL/well) and the plates were incubated for 24-36 h at 37° C. in 5% CO2. Compounds were initially dissolved in 50% ethanol and serially diluted into media. Compounds were routinely evaluated at concentrations from 1 to 100 μM. As a control, grade II porcine intestinal mucosal herapin (sodium salt) was routinely evaluated in all cell preparations at concentrations from 0.1 to 100 μg/mL.
At the completion of the test procedure, plates were placed on ice, washed three times with ice cold phosphate buffered saline (PBS) and incubated in ice cold 10% trichloroacetic acid (TCA) got 30 min to remove acid soluble proteins. Solution was transferred to scintillation vials containing 0.4 N HCl (500 μL/vial to neutralize NaOH) and each well was rinsed two times with water (500 μL) for a total volume of 2 mL/vial.
Data was obtained, in triplicate, for both control and experimental samples. Control (100%) data was obtained from maximally stimulated cells, as the result of growth factor or serum stimulation. Experimental data was obtained from cells maximally stimulated with growth factor or serum and treated with compound. Data are expressed as an IC50 in Table I below.

Structure (SMILES)	pIC50
CCCCOc1ccc(C(=O)N[C@@H]2O[C@H](COC(C)=O)[C@@H](O[C@H]3O[C@H](COC(C)=O)[C@@H](OC(C)=O)[C@H](OC(C)=O)[C@H]3OC(C)=O)[C@H](OC(C)=O)[C@H]2OC(C)=O)cc1Cl [Example 18, 4-butoxy-3-chloro-N-[2,3,6-tri-O-acetyl-4-O-(2,3,4,6-tetra-O-acetyl-α-D-glucopyranosyl)-β-D-glucopyranosyl]benzamide]	5.46

Same assay, conditions: at 50 μM, control (100%) = maximally stimulated cells

Structure (SMILES)	Porcine Smooth Muscle Cell Antiproliferation, % at 50 μM [% at 50]
O=C(NC1OC(CO)C(OC2OC3COC(c4ccccc4)OC3C(O)C2O)C(O)C1O)c1ccc(Cl)c([N+](=O)[O-])c1 [Example 5, (R)-4-chloro-3-nitro-N-[4-O-[4,6-O-(phenylmethylene)-α-D-glucopyranosyl]-β-D-glucopyranosyl]-benzamide]	37
O=C(N[C@@H]1O[C@H](CO)[C@@H](O[C@H]2O[C@@H]3COC(c4ccccc4)O[C@H]3[C@H](O)[C@H]2O)[C@H](O)[C@H]1O)c1ccc(Cl)cc1 (stereo partly drawn) [Example 11, N-(4′,6′-O-Benzylidene-β-D-maltosyl)-4-chloro-benzamide]	15
N#CCCCOc1ccc(C(=O)NC2OC(CO)C(OC3OC4COC(c5ccccc5)OC4C(O)C3O)C(O)C2O)cc1Cl [Example 15, N-(4′,6′-O-Benzylidene-β-D-maltosyl)-3-chloro-4-(4-nitrilo-butoxy)-benzamide]	30
CC(=O)OC1C(NC(=O)c2ccc(OCCCC#N)c(Cl)c2)OC(COC(=O)c2ccccc2)C(OC2OC3COC(c4ccccc4)OC3C(OC(C)=O)C2OC(C)=O)C1OC(C)=O [Example 17, N-(2,2′,3,3′-tetra-O-Acetyl-6-O-benzoyl-4′,6′-O-benzylidene-β-D-maltosyl)-3-chloro-4-(4-nitrilo-butoxy)-benzamide]	33
CCCCOc1ccc(C(=O)NC2OC(CO)C(OC3OC4COC(c5ccccc5)OC4C(O)C3O)C(O)C2O)cc1Cl.O [Example 19, 4-Butoxy-3-chloro-N-[(4′,6′-O-benzylidene)-β-D-maltosyl]-benzamide hydrate]	35
COc1cc(C(=O)NC2OC(CO)C(OC3OC4COC(c5ccccc5)OC4C(O)C3O)C(O)C2O)ccc1Cl [Example 23, N-(4′,6′-O-Benzylidene-β-D-maltosyl)-4-chloro-3-methoxy-benzamide]	2
CCCCOc1c(Cl)cc(C(=O)N[C@@H]2O[C@H](CO)[C@@H](O[C@H]3O[C@@H]4COC(c5ccccc5)O[C@H]4[C@H](O)[C@H]3O)[C@H](O)[C@H]2O)cc1OC.O (stereo partly drawn) [Example 26, 4-butoxy-3-chloro-N-[(4′,6′-O-benzylidene)-β-D-maltosyl]-5-methoxy-benzamide Hydrate]	32
CCCCOc1c(Cl)cc(C(=O)NC2OC(COC(=O)c3ccccc3)C(OC3OC4COC(c5ccccc5)OC4C(O)C3O)C(O)C2O)cc1OC [Example 27, N[(6-O-benzoyloxy-4′,6′-O-benzylidene)-β-D-maltosyl]-4-butoxy-3-chloro-5-methoxy-benzamide]	45
CC(=O)OCC1OC(NC(=O)c2ccc(OCCCC#N)c([N+](=O)[O-])c2)C(OC(C)=O)C(OC(C)=O)C1OC1OC(COC(C)=O)C(OC(C)=O)C(OC(C)=O)C1OC(C)=O (stereo not drawn) [Example 28]	3
N#CCCCOc1ccc(C(=O)NC2OC(CO)C(OC3OC4COC(c5ccccc5)OC4C(O)C3O)C(O)C2O)cc1[N+](=O)[O-] [Example 29, N-(4′,6′-O-Benzylidene-β-D-maltosyl)-4-(4-nitrilo-butoxy)-3-nitro-benzamide]	4

Same assay, conditions: serum/growth factor stimulated cells, 24-36 h incubation

Structure (SMILES)	pIC50
CC(=O)OC[C@H]1O[C@@H](NC(=O)c2ccc(Cl)c([N+](=O)[O-])c2)[C@H](OC(C)=O)[C@@H](OC(C)=O)[C@@H]1O[C@H]1O[C@H](COC(C)=O)[C@@H](OC(C)=O)[C@H](OC(C)=O)[C@H]1OC(C)=O [Example 1, N-(Hepta-O-acetyl-1-deoxy-β-D-maltosyl)-4-chloro-3-nitro-benzamide]	4.67
CC(=O)Nc1cc(C(=O)NC2OC(CO)C(OC3OC4COC(c5ccccc5)OC4C(O)C3O)C(O)C2O)ccc1Cl [Example 4, (R)-3-(Acetylamino)-4-chloro-N-[4-O-[4,6-O-(phenylmethylene)-α-D-glucopyranosyl]-β-D-glucopyranosyl]-benzamide]	5.49
CC(=O)Nc1cc(C(=O)NC2OC(COC(=O)c3ccccc3)C(OC3OC4COC(c5ccccc5)OC4C(O)C3O)C(O)C2O)ccc1Cl [Example 6, (R)-3-(Acetylamino)-N-[6-O-benzoyl-4-O-[4,6-O-(phenylmethylene)-α-D-glucopyranosyl]-β-D-glucopyranosyl]-4-chloro-benzamide]	6.35
O=C(NC1OC(COC(=O)c2ccccc2)C(OC2OC3COC(c4ccccc4)OC3C(O)C2O)C(O)C1O)c1ccc(Cl)c([N+](=O)[O-])c1 [Example 7, (R)-4-chloro-N-[(6-O-benzoyl-4′,6′-O-benzylidene)-β-D-maltosyl]-3-nitro-benzamide]	6.26
CC(=O)O[C@@H]1[C@@H](OC(C)=O)[C@H](NC(=O)c2ccc(Cl)c([N+](=O)[O-])c2)O[C@H](COC(=O)c2ccccc2)[C@H]1O[C@H]1O[C@@H]2COC(c3ccccc3)O[C@H]2[C@H](OC(C)=O)[C@H]1OC(C)=O (stereo partly drawn) [Example 8, 4-Chloro-N-[(2,2′,3,3′-tetra-O-acetyl-6-benzoyl-4′,6′-O benzylidene)-β-D-maltosyl]-3-nitro-benzamide]	6.59
CC(=O)Nc1cc(C(=O)NC2OC(COC(=O)c3ccccc3)C(OC3OC4COC(c5ccccc5)OC4C(O)C3OC(C)=O)C(O)C2OC(C)=O)ccc1Cl [Example 9, (R)-N-[2-O-Acetyl-4-O-[2-O-acetyl-4,6-O-(phenylmethylene)-α-D-glucopyranosyl]-6-O-benzoyl-β-D-glucopyranosyl]-3-(acetylamino)-4-chlorobenzamide]	5.90
CC(=O)OC[C@H]1O[C@@H](NC(=O)c2ccc(Cl)cc2)[C@H](OC(C)=O)[C@@H](OC(C)=O)[C@@H]1O[C@H]1O[C@H](COC(C)=O)[C@@H](OC(C)=O)[C@H](OC(C)=O)[C@H]1OC(C)=O [Example 10, N-(Hepta-O-acetyl-β-D-maltosyl)-4-chloro-benzamide]	4.44
O=C(NC1OC(COC(=O)c2ccccc2)C(OC2OC3COC(c4ccccc4)OC3C(O)C2O)C(O)C1O)c1ccc(Cl)cc1 [Example 12, N-(6-O-benzoyl-4′,6′-O-benzylidene-β-D-maltosyl)-4-chloro-benzamide]	4.31
CC(=O)OC[C@H]1O[C@@H](NC(=O)c2ccc(OCCCC#N)c(Cl)c2)[C@H](OC(C)=O)[C@@H](OC(C)=O)[C@@H]1O[C@H]1O[C@H](COC(C)=O)[C@@H](OC(C)=O)[C@H](OC(C)=O)[C@H]1OC(C)=O [Example 13]	4.48
CC(=O)OC[C@H]1O[C@H](NC(=O)c2ccc(OCCCC#N)c(Cl)c2)[C@H](OC(C)=O)[C@@H](OC(C)=O)[C@@H]1O[C@H]1O[C@H](COC(C)=O)[C@@H](OC(C)=O)[C@H](OC(C)=O)[C@H]1OC(C)=O [Example 14]	4.29
N#CCCCOc1ccc(C(=O)NC2OC(COC(=O)c3ccccc3)C(OC3OC4COC(c5ccccc5)OC4C(O)C3O)C(O)C2O)cc1Cl [Example 16, N-(6-O-Benzoyl-4′,6′-O-benzylidene-β-D-maltosyl)-3-chloro-4-(4-nitrilo-butoxy)-phenyl amide]	6.57
CCCCOc1ccc(C(=O)NC2OC(COC(=O)c3ccccc3)C(OC3OC4COC(c5ccccc5)OC4C(O)C3O)C(O)C2O)cc1Cl [Example 20, 4-Butoxy-3-chloro-N-[(6-O-benzoyl-4′,6′-O-benzylidene)-β-D-maltosyl]-benzamide]	5.50
CCCCOc1ccc(C(=O)N[C@@H]2O[C@H](COC(=O)c3ccccc3)[C@@H](O[C@H]3O[C@@H]4COC(c5ccccc5)O[C@H]4[C@H](OC(C)=O)[C@H]3OC(C)=O)[C@H](OC(C)=O)[C@H]2OC(C)=O)cc1Cl (stereo partly drawn) [Example 21, 4-Butoxy-3-chloro-N-[(2,3,2′,3′-tetra-O-acetyl-6-O-benzoyl-4′,6′-O-benzylidene)-β-D-maltosyl]-benzamide]	5.01
COc1cc(C(=O)NC2OC(COC(=O)c3ccccc3)C(OC3OC4COC(c5ccccc5)OC4C(O)C3O)C(O)C2O)ccc1Cl [Example 24, N-(6-O-Benzoyl-4′,6′-O-benzylidene-β-D-maltosyl)-4-chloro-3-methoxy-benzamide]	5.70
CCCCOc1c(Cl)cc(C(=O)NC2OC(COC(C)=O)C(OC3OC(COC(C)=O)C(OC(C)=O)C(OC(C)=O)C3OC(C)=O)C(OC(C)=O)C2OC(C)=O)cc1OC [Example 25, N-(2,2′,3,3′,4,6,6′-hepta-O-acetyl-β-D-maltosyl]-4-butoxy-5-chloro-3-methoxy-benzamide]	5.57
N#CCCCOc1ccc(C(=O)NC2OC(COC(=O)c3ccccc3)C(OC3OC4COC(c5ccccc5)OC4C(O)C3O)C(O)C2O)cc1[N+](=O)[O-] [Example 30, N-(6-O-Benzoyl-4′,6′-O-benzylidene-β-D-maltosyl)-4-(4-nitrilo-butoxy)-3-nitro-benzamide]	5.85

Reference: patent publication US6339064B1, “Benzylglycosylamides as inhibitors of smooth muscle cell proliferation” (American Home Products Corporation, priority 1998, dated 2002)
